Reference: ChEMBL document CHEMBL1201862, “PubChem BioAssay data set” (2004)
Active and inactive are the calls of the source.

Experiments:
[1] = biological target: T1, Bcl-2-related protein A1 (Mus musculus, UniProt Q07440); format: functional;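 further: confirmatory dose–response counterscreen on Bfl-1, used to check hits from a UBC13 polyubiquitin inhibitor campaign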
T1 sequence (Q07440 whole entry): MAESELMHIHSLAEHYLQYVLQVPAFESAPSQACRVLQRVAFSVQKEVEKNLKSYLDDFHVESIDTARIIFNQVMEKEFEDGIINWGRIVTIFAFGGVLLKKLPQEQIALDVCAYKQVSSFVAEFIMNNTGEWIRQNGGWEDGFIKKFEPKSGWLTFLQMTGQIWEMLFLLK

[2] = biological target: T2, Ubiquitin-conjugating enzyme E2 N (Homo sapiens, UniProt P61088); format: functional
T2 sequence (P61088 whole entry): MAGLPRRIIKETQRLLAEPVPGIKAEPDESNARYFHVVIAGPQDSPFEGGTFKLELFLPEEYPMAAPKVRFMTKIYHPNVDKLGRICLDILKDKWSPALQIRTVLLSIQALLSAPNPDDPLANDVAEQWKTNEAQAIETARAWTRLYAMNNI

[3] = biological target: T2, Ubiquitin-conjugating enzyme E2 N; format: functional; remark: listed apart in the source
[4] = biological target: Cytochrome P450 2C19 (Homo sapiens, UniProt P33261); assay: Cytochrome panel assay with activity outcomes. Panel member name: p450-cyp2c19 Compounds with AC50 equal or less than 10 uM are considered active; format: functional
Sequence of Cytochrome P450 2C19 (P33261 whole entry): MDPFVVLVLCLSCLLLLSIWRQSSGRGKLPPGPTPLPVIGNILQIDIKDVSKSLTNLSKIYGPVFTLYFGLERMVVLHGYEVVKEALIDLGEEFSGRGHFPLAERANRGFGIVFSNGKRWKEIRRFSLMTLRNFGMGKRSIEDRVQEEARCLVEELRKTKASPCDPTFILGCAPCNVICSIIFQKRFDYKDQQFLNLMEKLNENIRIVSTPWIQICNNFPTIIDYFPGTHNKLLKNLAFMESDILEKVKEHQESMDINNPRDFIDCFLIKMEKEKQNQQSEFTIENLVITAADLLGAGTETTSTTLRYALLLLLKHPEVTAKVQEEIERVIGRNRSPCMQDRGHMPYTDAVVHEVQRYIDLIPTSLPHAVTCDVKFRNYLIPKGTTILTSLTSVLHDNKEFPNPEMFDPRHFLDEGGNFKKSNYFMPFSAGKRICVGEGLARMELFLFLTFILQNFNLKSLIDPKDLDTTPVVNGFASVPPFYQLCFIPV

[5] = biological target: T3, Cytochrome P450 2D6 (Homo sapiens, UniProt P10635);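 further: CYP2D6 member of a cytochrome P450 panel assay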
T3 sequence (P10635 whole entry, the tested form may be a part): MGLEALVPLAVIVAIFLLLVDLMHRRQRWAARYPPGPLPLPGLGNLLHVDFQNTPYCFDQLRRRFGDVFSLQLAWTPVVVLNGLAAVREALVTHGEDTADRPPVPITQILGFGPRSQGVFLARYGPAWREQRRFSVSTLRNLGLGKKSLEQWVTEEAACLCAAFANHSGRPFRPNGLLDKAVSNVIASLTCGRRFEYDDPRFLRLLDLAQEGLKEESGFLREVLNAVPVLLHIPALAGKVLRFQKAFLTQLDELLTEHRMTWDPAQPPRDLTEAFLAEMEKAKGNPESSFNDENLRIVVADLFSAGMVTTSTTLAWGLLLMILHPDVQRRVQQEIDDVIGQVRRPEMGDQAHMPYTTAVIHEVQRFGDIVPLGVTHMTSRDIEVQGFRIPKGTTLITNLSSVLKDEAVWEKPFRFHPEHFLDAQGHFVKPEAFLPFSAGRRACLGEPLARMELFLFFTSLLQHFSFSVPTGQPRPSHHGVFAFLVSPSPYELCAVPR

[6] = biological target: T4, Carboxy-terminal domain RNA polymerase II polypeptide A small phosphatase 1 (Homo sapiens, UniProt Q9GZU7); assay: inhibitors of CTDSP1, concentration-response testing, biochemical assay, absorbance-based, actives from ultra-high-throughput screening (AID 540297); format: functional
T4 sequence (Q9GZU7 whole entry): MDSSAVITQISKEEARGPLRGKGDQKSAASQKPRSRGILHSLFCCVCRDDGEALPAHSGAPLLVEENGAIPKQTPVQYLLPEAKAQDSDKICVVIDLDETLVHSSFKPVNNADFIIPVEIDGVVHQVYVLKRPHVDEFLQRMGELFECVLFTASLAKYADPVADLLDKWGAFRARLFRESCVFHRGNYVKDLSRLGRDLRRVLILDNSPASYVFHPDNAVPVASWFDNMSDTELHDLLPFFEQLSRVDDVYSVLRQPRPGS

[7] = system: Streptococcus sp. 'group A'; assay: growth inhibition of control SK(-) GAS strain, dose response, counter-screen for streptokinase expression inhibitor project, luminescence, kanamycin, BacTiterGlo, confirmation (AID 1900); format: functional, organism-based
[8] = system: Streptococcus; assay: Group A Streptococcus viability loss, dose response, counter-screen for streptokinase expression inhibitor project, luminescence, BacTiterGlo (AID 1915); format: functional, organism-based;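 further: potency for reduction of bacterial viability or growth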
[9] = THP-1 cell cytotoxicity, dose response, cytotoxicity control for non-replicating M. tuberculosis project (AID 489025); format: functional
[10] = Vero E6 cell cytotoxicity, dose response, cytotoxicity control for non-replicating M. tuberculosis project, secondary assay (AID 492998); format: functional, VeroE6; details: Vero C1008
[11] = cells; format: functional
[12] = biological target: T5, Cytochrome P450 1A2 (Homo sapiens, UniProt P05177);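 further: PubChem cytochrome P450 panel assay, CYP1A2 panel member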
T5 sequence (P05177 whole entry): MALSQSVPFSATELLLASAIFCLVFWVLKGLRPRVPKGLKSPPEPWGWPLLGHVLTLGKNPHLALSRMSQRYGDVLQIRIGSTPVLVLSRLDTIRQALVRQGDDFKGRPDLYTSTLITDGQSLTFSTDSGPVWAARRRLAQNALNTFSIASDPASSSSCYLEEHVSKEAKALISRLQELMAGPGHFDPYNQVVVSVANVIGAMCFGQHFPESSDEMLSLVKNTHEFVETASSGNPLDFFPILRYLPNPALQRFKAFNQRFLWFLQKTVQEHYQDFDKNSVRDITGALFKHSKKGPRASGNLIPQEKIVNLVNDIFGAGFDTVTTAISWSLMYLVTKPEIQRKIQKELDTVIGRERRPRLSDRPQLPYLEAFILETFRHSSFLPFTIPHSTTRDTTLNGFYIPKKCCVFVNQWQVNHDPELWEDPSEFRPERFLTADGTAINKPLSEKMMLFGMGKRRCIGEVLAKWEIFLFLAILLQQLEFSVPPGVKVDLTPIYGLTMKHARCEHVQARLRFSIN

[13] = biological target: Cytochrome P450 2C9 (Homo sapiens, UniProt P11712)
Sequence of Cytochrome P450 2C9 (P11712 whole entry): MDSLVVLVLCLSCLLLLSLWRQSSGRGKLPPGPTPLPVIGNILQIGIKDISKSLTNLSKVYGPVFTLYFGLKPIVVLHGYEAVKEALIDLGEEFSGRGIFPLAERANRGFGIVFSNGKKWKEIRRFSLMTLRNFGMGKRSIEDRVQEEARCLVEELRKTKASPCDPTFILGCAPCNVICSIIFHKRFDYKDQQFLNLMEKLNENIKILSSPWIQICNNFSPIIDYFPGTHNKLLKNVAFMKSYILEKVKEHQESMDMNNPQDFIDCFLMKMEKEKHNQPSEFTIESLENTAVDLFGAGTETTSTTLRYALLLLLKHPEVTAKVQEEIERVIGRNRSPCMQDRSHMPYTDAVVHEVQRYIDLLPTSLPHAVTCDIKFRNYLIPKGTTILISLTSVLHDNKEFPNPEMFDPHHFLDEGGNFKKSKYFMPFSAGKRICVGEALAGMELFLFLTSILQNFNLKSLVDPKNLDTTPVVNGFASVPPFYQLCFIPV

[14] = biological target: T3, Cytochrome P450 2D6; remark: listed apart in the source
[15] = biological target: Cytochrome P450 3A4 (Homo sapiens, UniProt P08684);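 further: CYP3A4 tested as one member of a cytochrome P450 panel screen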
Sequence of Cytochrome P450 3A4 (P08684 whole entry): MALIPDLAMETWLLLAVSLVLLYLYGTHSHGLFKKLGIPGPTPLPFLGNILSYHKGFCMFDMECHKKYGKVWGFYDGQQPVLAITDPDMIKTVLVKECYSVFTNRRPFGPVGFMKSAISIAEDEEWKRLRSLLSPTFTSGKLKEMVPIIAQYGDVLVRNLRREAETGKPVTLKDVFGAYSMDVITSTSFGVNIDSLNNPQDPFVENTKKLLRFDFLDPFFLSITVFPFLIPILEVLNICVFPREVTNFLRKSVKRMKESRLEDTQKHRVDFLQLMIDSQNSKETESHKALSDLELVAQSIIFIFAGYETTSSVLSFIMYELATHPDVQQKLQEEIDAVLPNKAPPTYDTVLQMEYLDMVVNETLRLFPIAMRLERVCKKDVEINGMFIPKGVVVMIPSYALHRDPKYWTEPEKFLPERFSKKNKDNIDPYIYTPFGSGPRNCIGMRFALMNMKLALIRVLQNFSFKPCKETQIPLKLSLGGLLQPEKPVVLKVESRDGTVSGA

[16] = biological target: T6, Heat shock factor protein 1 (Mus musculus, UniProt P38532); assay: HSF1 potentiators in luciferase reporter cells, confirmation, cell-based, NIH3T3, luminescence, dose retest (AID 435004); format: functional;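 further: stress induced by proteasome inhibitor MG132 added 30 min after compound; luciferase reporter driven by HSF1 response element in NIH3T3 cells; actives raise luminescence as potentiators of the MG132 stress response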
T6 sequence (P38532 whole entry): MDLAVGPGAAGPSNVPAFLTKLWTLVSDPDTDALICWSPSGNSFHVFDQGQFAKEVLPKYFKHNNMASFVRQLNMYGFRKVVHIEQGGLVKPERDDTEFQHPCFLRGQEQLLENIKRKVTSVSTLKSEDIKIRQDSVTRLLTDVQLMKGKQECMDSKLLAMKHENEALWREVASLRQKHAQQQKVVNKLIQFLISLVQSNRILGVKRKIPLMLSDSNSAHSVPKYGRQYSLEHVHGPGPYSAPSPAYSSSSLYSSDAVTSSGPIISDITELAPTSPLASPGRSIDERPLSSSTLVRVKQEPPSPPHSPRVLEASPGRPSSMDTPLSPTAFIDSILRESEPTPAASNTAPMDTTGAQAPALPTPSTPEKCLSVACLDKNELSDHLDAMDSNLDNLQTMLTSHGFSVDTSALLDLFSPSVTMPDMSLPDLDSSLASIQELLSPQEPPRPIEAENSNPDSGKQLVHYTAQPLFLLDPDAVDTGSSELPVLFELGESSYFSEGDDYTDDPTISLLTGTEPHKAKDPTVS

[17] = biological target: Alkaline phosphatase, placental type (Homo sapiens, UniProt P05187); assay: PLAP enzyme inhibitors, confirmation, biochemical, luminescence (AID 1512); format: functional
Sequence of Alkaline phosphatase, placental type (P05187 whole entry): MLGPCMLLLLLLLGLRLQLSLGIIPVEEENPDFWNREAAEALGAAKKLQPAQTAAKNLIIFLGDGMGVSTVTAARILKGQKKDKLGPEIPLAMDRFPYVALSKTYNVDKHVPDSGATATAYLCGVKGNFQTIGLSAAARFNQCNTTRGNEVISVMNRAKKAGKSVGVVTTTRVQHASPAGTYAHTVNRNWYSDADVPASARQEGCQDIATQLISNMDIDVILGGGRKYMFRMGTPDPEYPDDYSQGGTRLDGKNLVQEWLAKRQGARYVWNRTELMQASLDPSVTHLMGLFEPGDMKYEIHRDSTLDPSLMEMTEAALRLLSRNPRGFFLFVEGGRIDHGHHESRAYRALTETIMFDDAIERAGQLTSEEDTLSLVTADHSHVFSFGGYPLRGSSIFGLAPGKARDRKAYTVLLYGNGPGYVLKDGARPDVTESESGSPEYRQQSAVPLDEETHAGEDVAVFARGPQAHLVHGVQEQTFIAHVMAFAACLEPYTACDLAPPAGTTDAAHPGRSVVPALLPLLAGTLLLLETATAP

[18] = biological target: T7, Alkaline phosphatase, tissue-nonspecific isozyme (Homo sapiens, UniProt P05186); assay: human TNAP enzyme inhibitors, SAR follow-up, biochemical, luminescent, dose response (AID 1056)
T7 sequence (P05186 whole entry): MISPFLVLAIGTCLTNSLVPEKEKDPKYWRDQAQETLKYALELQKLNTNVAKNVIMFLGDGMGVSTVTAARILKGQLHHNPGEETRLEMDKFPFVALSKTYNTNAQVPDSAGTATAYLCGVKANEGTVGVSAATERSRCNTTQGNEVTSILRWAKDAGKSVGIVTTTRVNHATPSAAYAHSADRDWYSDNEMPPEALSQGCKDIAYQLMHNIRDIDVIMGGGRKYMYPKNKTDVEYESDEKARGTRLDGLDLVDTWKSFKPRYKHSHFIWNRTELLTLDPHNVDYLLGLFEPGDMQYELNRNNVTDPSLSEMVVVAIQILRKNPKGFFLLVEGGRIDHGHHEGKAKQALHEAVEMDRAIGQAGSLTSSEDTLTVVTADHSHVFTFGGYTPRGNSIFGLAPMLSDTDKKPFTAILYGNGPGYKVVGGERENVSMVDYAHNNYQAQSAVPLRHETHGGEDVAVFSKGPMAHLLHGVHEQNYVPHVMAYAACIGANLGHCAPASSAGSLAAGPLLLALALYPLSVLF

[19] = system: P388/ADR; assay: cells; format: functional; details: Mus musculus
[20] = system: SN12K1; assay: cells; format: functional; details: Homo sapiens
[21] = system: P388; assay: cells; format: functional; details: Mus musculus
[22] = biological target: Dual specificity tyrosine-phosphorylation-regulated kinase 1A (Rattus norvegicus, UniProt Q63470); format: biochemical, Homo sapiens

SMILES: CN1CCN(C(=O)C2CCN(c3ncnc4c3nc3n4CCCCC3)CC2)CC1
- IC50 [1]: > 20 µM (inactive)
- IC50 [2]: 6.77 µM (active)
- IC50 [3]: 3.51 µM (active)

SMILES: CC(C)CCC[C@@H](C)[C@@H]1CC[C@@H]2[C@H]3CC[C@H]4C[C@@H](N)CC[C@@]4(C)[C@@H]3CC[C@]21C
- AC50 [4]: inconclusive
- AC50 [5]: inconclusive

SMILES: CCC(C(=O)NC1CCCC1)N(C(=O)c1snc(C(N)=O)c1N)c1ccc2c(c1)OCCO2 (stereo not drawn)
- IC50 [1]: > 20 µM (inactive)
- IC50 [2]: 5.82 µM (active)
- IC50 [3]: 7.69 µM (active)

SMILES: C[C@H](Br)CN(C[C@H](C)Br)c1ccc2c(c1)Cc1ccccc1-2
- AC50 [5]: inconclusive

SMILES: COc1cc2c(cc1NC(=O)CSc1nc3ccccc3[nH]1)oc1ccccc12
- IC50 [6]: 17.1 µM (active)

SMILES: CCC(CC)c1nnc(NC(=O)c2ccc3ccccc3n2)s1
- EC50 [7]: 8.53 µM (active)
- EC50 [8]: 12.5 µM (active)
- CC50 [9]: > 40 µM (active)
- CC50 [10]: 18.4 µM (active)
- IC50 [11]: 420 nM (active)
- AC50 ([4]; read-out: AC50): 28.2 µM (active)
- AC50 [12]: 2.51 µM (active)
- AC50 [13]: 7.94 µM (active)
- AC50 [5]: inactive

SMILES: COc1ccc(C(=O)N2CCC3(CC2)CCN(c2ncccn2)CC3)cc1
- AC50 [14]: 20 µM (inconclusive)
- AC50 [15]: inconclusive

SMILES: Cc1ccc(N(C(=O)c2snc(C(N)=O)c2N)C(C(=O)NC2CCCC2)c2ccco2)cc1 (stereo not drawn)
- IC50 [1]: > 20 µM (inactive)
- IC50 [2]: 13.3 µM (active)
- IC50 [3]: 8.18 µM (active)

SMILES: O=C1CN(C(=O)c2ccc(Br)o2)C(c2ccc(F)cc2)c2cc(Cl)ccc2N1 (stereo not drawn)
- EC50 [16]: > 260 µM (inactive)
- AC50 [12]: 0.0631 µM (inconclusive)
- AC50 [15]: inconclusive

SMILES: O/N=C/c1cc(Cl)ccc1OCc1cccc2ccccc12
- IC50 [17]: > 100 µM (inactive)
- IC50 [18]: > 100 µM (inactive)

SMILES: CC1C(=O)C(C)C(c2ccccc2)N(N=O)C1c1ccccc1 (stereo not drawn)
- GI50 [19]: > 100 µM (inactive)
- GI50 [20]: 42.8 µM (inactive)
- GI50 [21]: > 100 µM (inactive)

SMILES: CCCCN.N#C/C(=C\c1ccc(O)cc1)C(=O)O
- AC50 [22]: 3.24 µM (active)

SMILES: Cc1ccc(/C=N/NC(=O)c2cccs2)cc1[N+](=O)[O-]
- AC50 ([4]; read-out: AC50): 31.6 µM (inconclusive)
- AC50 [14]: 0.0251 µM (inconclusive)
- AC50 [15]: inconclusive

SMILES: Cc1cnn(CC(=O)c2ccc(O)c(O)c2)c1
- IC50 [17]: 2.13 µM (active)
- IC50 [18]: > 100 µM (inactive)
